This is an account of results in patent US9272040B2, “5-CNAC as oral delivery agent for parathyroid hormone fragments” (Novartis AG, priority 2001, dated 2016).

This series is described as follows: Primate administration: plasma hPTH by radioimmunoassay after oral capsule. The series is classed as in vivo. As to conditions: Table 2 versus Table 1, Rhesus monkey. The method, then: The capsules prepared in Example 1 are administered to Rhesus monkeys as follows: four monkeys in a group are each dosed with one capsule prepared as in Example 1 as follows:
The Rhesus monkeys fast overnight prior to dosing and are restrained in chairs fully conscious, for the duration of the study period. The capsules are orally administered via a gavage tube followed by 10 ml of water.
Blood samples are collected at 0, 0.25, 0.5, 0.75, 1, 1.5, 2, 3, 4, 5, and 6 hours after administration. Plasma hPTH levels are determined by radioimmunoassay. The primate plasma PTH results from each group of monkeys are averaged and the maximum mean plasma calculated.

Each structure is given as a SMILES string.

As for `O=C(O)CCCCCCCNC(=O)c1cc(Cl)ccc1O` [Capsule 5-CNAC, N-(5-chlorosalicyloyl)-8-aminocaprylic acid], the “effect of carrier on oral delivery of the hPTH fragment” value is listed as “significantly facilitates the oral delivery of the hPTH fragment”.
